Measurements from patent publication US20100016358A1, “GAMMA-GLOBIN INDUCER” (KOWA CO., LTD., priority 2006, published 2010).
Counter-ions that a name gives are not always drawn.

What was measured:
Assay type in all cases: cell-based, human
K562 cells [1] = assay: Measurement of the amount of hemoglobin produced by K562 cells (porphyrin fluorescence); settings: for hemoglobin production promoting action: FIG. 1
Description: Compound 1 was synthesized through a method disclosed in International publication WO 03/02703 (Example 13) and dissolved in dimethyl sulfoxide (DMSO). The concentration of the solution was adjusted as appropriate through dilution. An equiamount of DMSO was employed as a control solution.
Cells of human proerythroblast cell line K562 (obtained from ATCC) were added to a complete culture medium (RPMI-1640 medium containing 10% fetal bovine serum), and the resultant cells (1×10^5 cells/mL) were seeded into each well of 24-well plate (2 mL/well). A solution of compound 1 (×1000) was added to the plate (2 μL/well), and cells were cultured in a CO2 incubator (37° C., 5% CO2) for three days. The medium was renewed, and cells were further cultured for three days.
The cultured cells were collected and counted. The number of cells in each sample was adjusted to 3×10^5, and the intensity of the fluorescence attributed to a porphyrin ring was measured, to thereby determine the hemoglobin level. Specifically, cells collected through centrifugation were suspended in 2M oxalic acid (500 μL), and the suspension was boiled for 30 minutes and cooled. Fluorescence intensity was measured by means of a fluorescence microplate reader (Spectra MAX Gemini EM, product of Molecular Device) ([…]).

[2] = test system: γ-globin mRNA in K562 cells; assay: γ-globin mRNA level in K562 cells by real-time PCR (TaqMan); settings: 0.3-μM-added group, cultured three days
Description: K562 cells (1×10^5 cells/mL) were seeded into each well of 6-well plate (4 mL/well). A solution of compound 1 (×1000) was added to the plate (4 μL/well), and cells were cultured in a CO2 incubator (37° C., 5% CO2) for three days. The cultured cells were collected, and RNA was prepared from the cells by means of a RNeasy mini column (product of Qiagen). Subsequently, cDNA was synthesized from the thus-obtained RNA by use of reverse transcriptase. Through real-time PCR employing a TaqMan probe according to a protocol of Applied Bio-Systems, γ-globin mRNA level was determined (ABI PRISM7900HT System, product of Applied Bio-Systems). In Example 2, the following primers and probe were employed (SEQ ID NOs: 1 to 3): […]
forward primer (GGTTCTTTGACAGCTTTG, SEQ ID NO: 1);
reverse primer (CCTTCTTGCCATGTGCCTT, SEQ ID NO: 2); and
fluorescence probe (CCTCTGCCTCTGCCATC, SEQ ID NO: 3).
These primers and probe are custom synthesis products of Qiagen.

K562 cells [3] = assay: HbF-producing cells (F cells) in K562 cell population by flow cytometry with FITC-labeled anti-HbF antibody; settings: 0.1-μM compound, cultured three days
Description: K562 cells (1×10^5 cells/mL) were seeded into each well of 24-well plate (2 mL/well). A solution of compound 1 (×1000) was added to the plate (2 μL/well), and cells were cultured in a CO2 incubator (37° C., 5% CO2) for three days. The cultured cells were collected through centrifugation and treated for 10 minutes with phosphate buffered saline (PBS) containing 0.05% glutaraldehyde/0.1% bovine serum albumin (BSA). The liquid was removed from the mixture through centrifugation, to thereby obtain pellets. Subsequently, 0.1% BSA/PBS was added to the separated pellets, and the same treatment was performed three times, to thereby wash the cells. The thus-washed cells were subjected, for five minutes, to permeation treatment with 0.1% BSA/PBS containing 1% Triton X-100 (0.5 mL) and washed once again. The resultant cells were suspended in 0.1% BSA/PBS (80 μL). FITC-labeled anti-HbF antibody (10 μg/mL, product of Caltag) (5 μL) was added to the suspension, and the mixture was allowed to react at room temperature in the dark for 15 minutes, whereby HbF present in the cells was immunostained. In a similar manner as described above, the stained cells were washed and suspended in 0.1% BSA/PBS containing 1% formaldehyde (0.5 mL). The suspension was analyzed through a method known in the art, by means of a flow cytometer (EPICS XL, product of Beckman Coulter, Inc.).

Compound	amount of hemoglobin produced (compound-non-added group = 100%) (K562 cells [1]; 0.3-μM-added group, cultured 3 + 3 days) [%]	hemoglobin production promoting action (K562 cells [1])	amount of γ-globin mRNA produced (compound-non-added group = 1) [2]	number of HbF-expressing cells (F cells) (K562 cells [3])
COc1ccc(N(Cc2cncc(-c3cc(OC)c(OC)c(OC)c3)c2)C2CCN(Cc3ccnc(-c4cc(OC)c(OC)c(OC)c4)c3)CC2)cc1 [compound 1, 4-[N-(4-Methoxyphenyl)-N-[[5-(3,4,5-trimethoxyphenyl)pyridin-3-yl]methyl]amino]-1-[[2-(3,4,5-trimethoxyphenyl)pyridin-4-yl]methyl]piperidine]	435	promotes production of hemoglobin in a concentration (dose)-dependent manner	about four fold	almost doubled
COc1cc(C(=O)OCCCN2CCCN(CCCOC(=O)c3cc(OC)c(OC)c(OC)c3)CC2)cc(OC)c1OC [dilazep hydrochloride, Dilazep hydrochloride, reference compound]		did not exhibit hemoglobin production promoting action		
